Measured values as given in publication PMC8369502, “High-Throughput Drug Screening System Based on Human Induced Pluripotent Stem Cell-Derived Atrial Myocytes ∼ A Novel Platform to Detect Cardiac Toxicity for Atrial Arrhythmias” (Frontiers in Pharmacology, 2021).
Where “and” joins values, the source holds several entries; their conditions need not be identical. Identical values can stand only once. Entries after “also recorded” stand apart in the source; their conditions may differ. Like-named read-outs stand apart in the source and are kept apart here. Each block holds one compound with its values, some of them ahead of it.

Key:
Assay type in all cases: cell-based, human
[1] = tested on: CT (control hiPS-CMs without RA, ventricular-like); test: High-throughput membrane potential recording (FluoVolt, FDSS/μCell) in CT; conditions: for Falling Slope / PWD30cF / PWD80cF / Rising Slope: % change from value before compound addition, 10 min after addition (Bay K 8644: 3 min); for beating rate (in words) / falling slope of membrane potential (in words) / rising slope of membrane potential (in words): concentration range as stated in the source
Procedure: (§1) Using a high-throughput screening system (FDSS/μCell), we assessed the drug toxicity of several experimental drugs on hiPS-derived atrial myocytes as well as control hiPS-derived cardiomyocytes. Membrane potential was used as one of the parameters during the assessment.
(§2) After purification, hiPS-derived cardiomyocytes were plated in 96-well plates for downstream drug response assessment using FluoVolt™ Membrane Potential Kit. […] The comparison of variance in the response of drug administration in CT and AM was represented by the percentage of changes based on their baseline values respectively.
(§3) FluoVolt™ Membrane Potential Kit (ThermoFisher […], F10488, Massachusetts, United States) was used to measure membrane potentials. The basic procedure was performed in accordance with the manufacturer’s instructions. […] MP were recorded at excitation and emission stages at wavelengths of 470 and 540 nm, respectively. […] Stock solutions of the test compounds were prepared in 100% DMSO, and serially diluted 1/40 into compound plates for testing (0.5% DMSO was the maximum concentration in all wells). The compounds were automatically pipetted from the compound plate, and 12 μL was loaded in the wells already containing the cells with 48 μL of media. Recording data were analyzed using Waveform Analysis of Cardiomyocyte Software (Ver.1.2.1J, Hamamatsu Photonics K.K.). Data values for a well were averaged from waveforms that arose during 30 s. The beat rate (BR; beats per minute), waveform amplitude (AMP), and duration at 30, 50, and 80% of decay (PWD30, PWD 50, and PWD 80, respectively) were used as evaluation parameters. PWDs were corrected using the Fridericia formula. PWD30-80 was calculated as the difference between PWD80 and PWD30. Each parameter was calculated as percentage change (%) from the value before test compound addition.

[2] = tested on: AM (RA-treated hiPS-CMs, atrial-like); test: High-throughput membrane potential recording (FluoVolt, FDSS/μCell) in AM; conditions: for cessation of beating (samples): 0.1 μM doses; for Beat Rate / Falling Slope / PWD80cF / Rising Slope / PWD30cF: % change from value before compound addition, 10 min after addition (Bay K 8644: 3 min); for arrest of spontaneous beating (samples): at the maximal concentration; for beating rate (in words) / falling slope of membrane potential (in words) / rising slope of membrane potential (in words): concentration range as stated in the source
Procedure: as §1, §2, §3

[3] = tested on: hiPS-derived cardiomyocytes; test: Cardiac differentiation of hiPSCs with RA, immunostaining (cTnT, MLC-2a, MLC-2v)
Procedure: Undifferentiated hiPSCs were maintained in AK02 medium for 2–3 days until 80% confluency was obtained. To obtain highly purified cardiomyocytes, metabolic selection was performed during post-differentiation, from day 15–26. Cardiomyocyte proportion was quantified by immunostaining with cardiac troponin-T (cTnT).
To further evaluate the gene expression of cardiac subtypes in the control hiPS-CMs (CT) and the RA-treated hiPS-CMs (AM), the cells were co-stained with myosin light chain 2a (MLC-2a: atrial isoform) and myosin light chain 2v (MLC-2v: ventricular isoform) (Supplementary Figure 1). […] In AM (MLC-2a 83.4 ± 0.63%), most cTnT-positive cells were co-positive for MLC-2a, however, very few cTnT-positive cells were found co-positive for MLC-2v (MLC-2v 14.0 ± 2.82%) (Figures 1B, C).
The hiPSCs were enzymatically dispersed and maintained until 80% confluence with StemFit® AK02N containing 10 µM Y-27632 (Wako, 036-24023). The next day, the culture medium was changed to StemFit® AK02N without Y-27632, which was maintained until the next passage. hiPSCs were seeded on a dish coated with Geltrex LDEV-Free Reduced Growth Factor (ThermoFisher […]) at 1% concentration in PBS. When the seeded cells reached 80% confluency (day-1), the culture medium was changed to StemFit® AK02N containing Matrigel® (Growth Factor Reduced, Corning, 354,230) at 1% concentration for 24 h. On day0, the culture medium was changed to Medium A (PSC Cardiomyocyte Differentiation Kit, ThermoFisher […]) containing Matrigel for 48 h. On day2, the culture medium was changed to Medium B (PSC Cardiomyocyte Differentiation Kit, ThermoFisher […]) for 48 h. On day4, the culture medium was changed to cardiomyocyte maintenance medium (PSC Cardiomyocyte Differentiation Kit, ThermoFisher […]) supplemented with or without 0.7 μM RA (Sigma Aldrich, R2625) for 72 h. On day 7, the culture medium was changed to cardiomyocyte maintenance medium, and change the medium every 2 days. The cells typically started spontaneous beating around 10 days of initiation of the differentiation protocol. Purification of cardiomyocytes was performed by using a non-glucose medium supplemented with 4 mM lactic acid for 4days/time, performed 2 times (from day 14 to day 18, and from day 21 to day 25), between the 2 times of purifying application, the medium was changed to cardiomyocyte maintenance medium for 72 h (from day 18 to day 21). After purification, the culture was continued in the cardiomyocyte maintenance medium until the functional analysis.
hiPSC-derived cardiomyocytes were fixed with 4% PFA and permeabilized with 0.1% Triton-X in PBS (-) for 15 min at 4°C. […] Fluorescence images were obtained using Operetta high content imaging system (PerkinElmer, Japan) and analyzed using Harmony analysis software (PerkinElmer, Japan).

Compound: COc1ccc(CCN(C)CCCC(C#N)(c2ccc(OC)c(OC)c2)C(C)C)cc1OC (centres unmarked) [Verapamil]
membrane potential duration (in words) [1]: decreased
Falling Slope [1]: ↑
PWD30cF [1]: ↓
PWD80cF [1]: ↓
Rising Slope [1]: ↓
beating rate (in words) [1]: dose-dependent increases
falling slope of membrane potential (in words) [1]: dose-dependent increases
other parameters of membrane potential (in words) [2]: no obvious changes were observed
incidence of arrhythmia-like waveforms: arrest ([2]; 0.1 μM): 100%
cessation of beating (samples) [2]: all the AM samples
Beat Rate [2]: ↑
arrest of spontaneous beating (samples) [2]: all the tested samples
beating rate (in words) [2]: dose-dependent increase

concentration at which irregular beating or EAD appeared [1]: above 10 μM
irregular beating (samples) ([2]; 10 μM, count of samples): 1 out of 9
Compound: CC(C)NCC(O)COc1cccc2ccccc12 (centres unmarked) [Propranolol]
PWD30-80 (in words) [1]: prolonged
PWD80cF (in words) [1]: prolonged
incidence of arrhythmia-like waveforms: EAD ([1]; 10 μM): 25%
incidence of arrhythmia-like waveforms: irregular beat ([1]; 10 μM): 17%
incidence of arrhythmia-like waveforms: EAD ([1]; 30 μM): 42%
incidence of arrhythmia-like waveforms: arrest ([1]; 30 μM): 17%
incidence of arrhythmia-like waveforms: irregular beat ([1]; 30 μM): 8%
incidence of arrhythmia-like waveforms: arrest ([1]; 100 μM): 100%
Falling Slope [1]: ↓
PWD30cF [1]: ↓
PWD80cF [1]: ↑
Rising Slope [1]: ↓
beating rate (in words) [1]: dose-dependent decrease
falling slope of membrane potential (in words) [1]: dose-dependent decrease
rising slope of membrane potential (in words) [1]: dose-dependent decrease
PWD30-80 (in words) [2]: prolonged
PWD80cF (in words) [2]: prolonged
incidence of arrhythmia-like waveforms: irregular beat ([2]; 10 μM): 11%
incidence of arrhythmia-like waveforms: arrest ([2]; 30 μM): 100%
incidence of arrhythmia-like waveforms: arrest ([2]; 100 μM): 100%
Beat Rate [2]: ↓
Falling Slope [2]: ↓
PWD80cF [2]: ↑
Rising Slope [2]: ↓
beating rate (in words) [2]: dose-dependent decrease
falling slope of membrane potential (in words) [2]: dose-dependent decrease
rising slope of membrane potential (in words) [2]: dose-dependent decrease

Compound: COC(=O)C1=C(C)NC(C)=C([N+](=O)[O-])C1c1ccccc1C(F)(F)F (centres unmarked) [Bay K 8644]
PWD30cF (in words) [1]: prolonged
membrane potential duration (in words) [1]: prolonged
Falling Slope [1]: ↓
PWD30cF [1]: ↑
PWD80cF [1]: ↑
falling slope of membrane potential (in words) [1]: dose-dependent decrease
PWD30cF (in words) ([1]; listed as Bay K8644): prolonged significantly
PWD30cF (in words) [2]: prolonged
membrane potential duration (in words) [2]: prolonged
Falling Slope [2]: ↓
PWD30cF [2]: ↑
PWD80cF [2]: ↑
Rising Slope [2]: ↑
falling slope of membrane potential (in words) [2]: dose-dependent decrease
PWD30cF (in words) ([2]; listed as Bay K8644): prolonged significantly

cessation of beating (samples) [2]: all the AM samples
arrest of spontaneous beating (samples) [2]: all the tested samples
Compound: COc1ccc([C@@H]2Sc3ccccc3N(CCN(C)C)C(=O)[C@@H]2OC(C)=O)cc1 [Diltiazem]
membrane potential duration (in words) [1]: decreased
Falling Slope [1]: ↑
PWD30cF [1]: ↓
PWD80cF [1]: ↓
beating rate (in words) [1]: dose-dependent increases
falling slope of membrane potential (in words) [1]: dose-dependent increases
other parameters of membrane potential (in words) [2]: no obvious changes were observed
incidence of arrhythmia-like waveforms: arrest ([2]; 1 μM): 100%
Beat Rate [2]: ↑
PWD30cF [2]: ↓
beating rate (in words) [2]: dose-dependent increase

Compound: CC1=C(/C=C/C(C)=C/C=C/C(C)=C/C(=O)O)C(C)(C)CCC1 [RA, retinoic acid]
MLC-2a positive cells ([3]; AM (RA-treated hiPS-CMs)): 83.4 ± 0.63%
MLC-2v positive cells ([3]; AM (RA-treated hiPS-CMs)): 14.0 ± 2.82%
proportion of cTnT-positive cells ([3]; AM (RA-treated hiPS-CMs), 0.7 μM RA day 4-7, n = 3): 96.79 ± 1.81% and 96.8 ± 1.81%
cardiomyocyte differentiation efficiency (in words) ([3]; with vs without RA): did not influence cardiomyocyte differentiation efficiency

Compound: Cc1cccc(CCN2CCC(C(=O)c3ccc(NS(C)(=O)=O)cc3)CC2)n1 [E-4031]
PWD30-80 (in words) [1]: prolonged; also recorded: dose-dependent increases
PWD80cF (in words) [1]: prolonged; also recorded: dose-dependent increases
membrane potential duration (in words) [1]: increase
Falling Slope [1]: ↓
PWD30cF [1]: ↓
PWD80cF [1]: ↑
Rising Slope [1]: ↓
beating rate (in words) [1]: dose-dependent decrease
falling slope of membrane potential (in words) [1]: dose-dependent decrease
rising slope of membrane potential (in words) [1]: dose-dependent decrease
PWD30-80 (in words) [2]: prolonged; also recorded: dose-dependent increases
PWD80cF (in words) [2]: prolonged; also recorded: dose-dependent increases
membrane potential duration (in words) [2]: increase
Beat Rate [2]: ↓
Falling Slope [2]: ↓
PWD80cF [2]: ↑
Rising Slope [2]: ↓
beating rate (in words) [2]: dose-dependent decrease
falling slope of membrane potential (in words) [2]: dose-dependent decrease
rising slope of membrane potential (in words) [2]: dose-dependent decrease

Compound: Nc1ccncc1 [4-Aminopridine, 4-Aminopyridine]
PWD30cF [1]: ↑
PWD30cF [2]: ↑
PWD80cF [2]: ↑
PWD30cF (in words) ([2]; listed as 4-AP): dose-dependent increases
PWD50cF (in words) ([2]; listed as 4-AP): dose-dependent increases
PWD30cF (in words) ([2]; listed as 4AP): prolongation
PWD50cF (in words) ([2]; listed as 4AP): prolongation

EAD / irregular beating (in words) [1]: No irregular beating or EAD was elicited
EAD / irregular beating (in words) [2]: No irregular beating or EAD was elicited
Compound: C[N+](C)(C)CCOC(N)=O [Carbachol]
response of membrane potential parameters (in words) [1]: no significant difference was observed
Beat Rate [2]: ↓
Rising Slope [2]: ↓
beating rate (in words) [2]: decrease
rising slope of membrane potential (in words) [2]: decrease
EAD / irregular beating (in words) ([2]; listed as carbachol): caused irregular beats early after application

Compound: CCS(=O)(=O)N(C)[C@H]1c2cc(C#N)ccc2OC(C)(C)[C@@H]1O (racemic) [Chromanol 293B]
membrane potential duration (in words) [1]: increase
Falling Slope [1]: ↓
PWD30cF [1]: ↑
PWD80cF [1]: ↑
Rising Slope [1]: ↓
rising slope of membrane potential (in words) [1]: dose-dependent decrease
membrane potential duration (in words) [2]: increase
PWD30cF [2]: ↑
Rising Slope [2]: ↓
rising slope of membrane potential (in words) [2]: dose-dependent decrease
